Values after ≈ are worked out from the molar mass of the structure shown.
Key:
Assay type in all cases: functional
[1] = tested on: Corynebacterium amycolatum; experiment: Antimicrobial activity against Corynebacterium amycolatum isolates by CLSI M45-A protocol based microdilution method
[2] = tested on: Corynebacterium jeikeium; experiment: Antimicrobial activity against Corynebacterium jeikeium isolates by CLSI M45-A protocol based microdilution method
[3] = tested on: Corynebacterium minutissimum; experiment: Antimicrobial activity against Corynebacterium minutissimum isolates by CLSI M45-A protocol based microdilution method
[4] = tested on: Corynebacterium pseudodiphtheriticum; experiment: Antimicrobial activity against Corynebacterium pseudodiphtheriticum isolates by CLSI M45-A protocol based microdilution method
[5] = tested on: Corynebacterium striatum; experiment: Antimicrobial activity against Corynebacterium striatum isolates by CLSI M45-A protocol based microdilution method
[6] = tested on: Corynebacterium urealyticum; experiment: Antimicrobial activity against Corynebacterium urealyticum isolates by CLSI M45-A protocol based microdilution method
[7] = tested on: Corynebacterium xerosis; experiment: Antimicrobial activity against Corynebacterium xerosis isolates by CLSI M45-A protocol based microdilution method
[8] = tested on: Arcanobacterium haemolyticum; experiment: Antimicrobial activity against Arcanobacterium haemolyticum isolates by CLSI M45-A protocol based microdilution method
[9] = tested on: Prescottella equi; experiment: Antimicrobial activity against Rhodococcus equi isolates by CLSI M45-A protocol based microdilution method
[10] = tested on: Listeria monocytogenes; experiment: Antimicrobial activity against Listeria monocytogenes isolates by CLSI M45-A protocol based microdilution method
[11] = Rhodococcus (subgen. Prescottella) equi

Compound	MIC50 [1]	MIC90 [1]	MIC50 [2]	MIC90 [2]	MIC50 [3]	MIC50 [4]	MIC90 [4]	MIC50 [5]	MIC90 [5]	MIC50 [6]	MIC90 [6]	MIC50 [7]	MIC50 [8]	MIC90 [8]	MIC50 [9, 11]	MIC90 [9, 11]	MIC50 [10]	MIC90 [10]	MIC [2]	MIC [8]	also measured
CO/N=C(\C(=O)N[C@@H]1C(=O)N2C(C(=O)O)=C(COC(N)=O)CS[C@H]12)c1ccco1 [CEFUROXIME]	0.5 µg/mL (≈ 1.18 µM)	2 µg/mL (≈ 4.71 µM)	> 32 µg/mL	> 32 µg/mL	0.5 µg/mL (≈ 1.18 µM)	0.06 µg/mL (≈ 0.141 µM)	0.125 µg/mL (≈ 0.295 µM)	1 µg/mL (≈ 2.36 µM)	2 µg/mL (≈ 4.71 µM)	> 32 µg/mL	> 32 µg/mL	2 µg/mL (≈ 4.71 µM)	0.125 µg/mL (≈ 0.295 µM)	0.25 µg/mL (≈ 0.589 µM)	8 µg/mL (≈ 18.9 µM)	16 µg/mL (≈ 37.7 µM)	> 32 µg/mL	> 32 µg/mL			
CCC[C@@H]1C[C@@H](C(=O)N[C@@H]([C@H]2O[C@H](SC)[C@H](O)[C@@H](O)[C@H]2O)[C@H](C)Cl)N(C)C1 [CLINDAMYCIN]	> 16 µg/mL	> 16 µg/mL	> 16 µg/mL	> 16 µg/mL	> 16 µg/mL	> 16 µg/mL	> 16 µg/mL	> 16 µg/mL	> 16 µg/mL	> 16 µg/mL	> 16 µg/mL	> 16 µg/mL	≤ 0.015 µg/mL	≤ 0.015 µg/mL	2 µg/mL (≈ 4.71 µM)	8 µg/mL (≈ 18.8 µM)	1 µg/mL (≈ 2.35 µM)	2 µg/mL (≈ 4.71 µM)	> 16 µg/mL	≤ 0.015 µg/mL	
C[C@H]1c2cccc(O)c2C(=O)C2=C(O)[C@]3(O)C(=O)C(C(N)=O)=C(O)[C@@H](N(C)C)[C@@H]3[C@@H](O)[C@@H]21.O [DOXYCYCLINE]	0.06 µg/mL	0.5 µg/mL	0.03 µg/mL	1 µg/mL	0.25 µg/mL	0.125 µg/mL	0.125 µg/mL	8 µg/mL	> 16 µg/mL	0.125 µg/mL	4 µg/mL	0.5 µg/mL	0.125 µg/mL	8 µg/mL	1 µg/mL	1 µg/mL	0.125 µg/mL	0.125 µg/mL			
C[C@H]1COc2c(N3CCN(C)CC3)c(F)cc3c(=O)c(C(=O)O)cn1c23.C[C@H]1COc2c(N3CCN(C)CC3)c(F)cc3c(=O)c(C(=O)O)cn1c23.O [LEVOFLOXACIN]	> 32 µg/mL	> 32 µg/mL	4 µg/mL	> 32 µg/mL	0.06 µg/mL	0.25 µg/mL	4 µg/mL	> 32 µg/mL	> 32 µg/mL	> 32 µg/mL	> 32 µg/mL	32 µg/mL	0.5 µg/mL	0.5 µg/mL	1 µg/mL	2 µg/mL	0.5 µg/mL	1 µg/mL			
CN(C)c1ccc(O)c2c1C[C@H]1C[C@H]3[C@H](N(C)C)C(O)=C(C(N)=O)C(=O)[C@@]3(O)C(O)=C1C2=O [MINOCYCLINE]	0.06 µg/mL (≈ 0.131 µM)	0.25 µg/mL (≈ 0.546 µM)	0.06 µg/mL (≈ 0.131 µM)	0.25 µg/mL (≈ 0.546 µM)	≤ 0.03 µg/mL	0.06 µg/mL (≈ 0.131 µM)	0.06 µg/mL (≈ 0.131 µM)	4 µg/mL (≈ 8.74 µM)	8 µg/mL (≈ 17.5 µM)	0.06 µg/mL (≈ 0.131 µM)	0.5 µg/mL (≈ 1.09 µM)	0.25 µg/mL (≈ 0.546 µM)	≤ 0.03 µg/mL	4 µg/mL (≈ 8.74 µM)	0.25 µg/mL (≈ 0.546 µM)	0.25 µg/mL (≈ 0.546 µM)	0.06 µg/mL (≈ 0.131 µM)	0.06 µg/mL (≈ 0.131 µM)	0.06 µg/mL (≈ 0.131 µM)	≤ 0.03 µg/mL	MIC [3]: ≤ 0.03 µg/mL
CN(C)[C@@H]1C(O)=C(C(N)=O)C(=O)[C@@]2(O)C(O)=C3C(=O)c4c(O)cccc4[C@@](C)(O)[C@H]3C[C@@H]12 [TETRACYCLINE]	0.125 µg/mL (≈ 0.281 µM)	0.5 µg/mL (≈ 1.13 µM)	0.06 µg/mL (≈ 0.135 µM)		0.25 µg/mL (≈ 0.563 µM)	0.125 µg/mL (≈ 0.281 µM)	0.25 µg/mL (≈ 0.563 µM)	16 µg/mL (≈ 36 µM)	> 32 µg/mL	0.25 µg/mL (≈ 0.563 µM)	16 µg/mL (≈ 36 µM)	0.5 µg/mL (≈ 1.13 µM)	0.125 µg/mL (≈ 0.281 µM)	16 µg/mL (≈ 36 µM)	8 µg/mL (≈ 18 µM)	8 µg/mL (≈ 18 µM)	0.5 µg/mL (≈ 1.13 µM)	0.5 µg/mL (≈ 1.13 µM)	0.06 µg/mL (≈ 0.135 µM)		
CN(C)c1cc(NC(=O)CNC(C)(C)C)c(O)c2c1C[C@H]1C[C@H]3[C@H](N(C)C)C(O)=C(C(N)=O)C(=O)[C@@]3(O)C(O)=C1C2=O [TIGECYCLINE]	0.125 µg/mL (≈ 0.213 µM)	0.25 µg/mL (≈ 0.427 µM)	≤ 0.015 µg/mL	0.03 µg/mL (≈ 0.0512 µM)	≤ 0.015 µg/mL	≤ 0.015 µg/mL	0.03 µg/mL (≈ 0.0512 µM)	0.5 µg/mL (≈ 0.854 µM)	1 µg/mL (≈ 1.71 µM)	0.03 µg/mL (≈ 0.0512 µM)	0.06 µg/mL (≈ 0.102 µM)	0.125 µg/mL (≈ 0.213 µM)	≤ 0.015 µg/mL	≤ 0.015 µg/mL	0.25 µg/mL (≈ 0.427 µM)	0.5 µg/mL (≈ 0.854 µM)	0.06 µg/mL (≈ 0.102 µM)	0.125 µg/mL (≈ 0.213 µM)	≤ 0.015 µg/mL	≤ 0.015 µg/mL	MIC [3]: ≤ 0.003 µg/mL; MIC [4]: ≤ 0.015 µg/mL
CN[C@H](CC(C)C)C(=O)N[C@H]1C(=O)N[C@@H](CC(N)=O)C(=O)N[C@H]2C(=O)N[C@H]3C(=O)N[C@H](C(=O)N[C@H](C(=O)O)c4cc(O)cc(O)c4-c4cc3ccc4O)[C@H](O)c3ccc(c(Cl)c3)Oc3cc2cc(c3O[C@@H]2O[C@H](CO)[C@@H](O)[C@H](O)[C@H]2O[C@H]2C[C@](C)(N)[C@H](O)[C@H](C)O2)Oc2ccc(cc2Cl)[C@H]1O [VANCOMYCIN]	0.25 µg/mL (≈ 0.173 µM)	0.5 µg/mL (≈ 0.345 µM)	0.06 µg/mL (≈ 0.0414 µM)	0.25 µg/mL (≈ 0.173 µM)	0.25 µg/mL (≈ 0.173 µM)	0.25 µg/mL (≈ 0.173 µM)	0.25 µg/mL (≈ 0.173 µM)	0.25 µg/mL (≈ 0.173 µM)	0.5 µg/mL (≈ 0.345 µM)	0.25 µg/mL (≈ 0.173 µM)	0.5 µg/mL (≈ 0.345 µM)	0.25 µg/mL (≈ 0.173 µM)	0.25 µg/mL (≈ 0.173 µM)	0.5 µg/mL (≈ 0.345 µM)	0.5 µg/mL (≈ 0.345 µM)	0.5 µg/mL (≈ 0.345 µM)	0.5 µg/mL (≈ 0.345 µM)	1 µg/mL (≈ 0.69 µM)	0.06 µg/mL (≈ 0.0414 µM)		
GENTAMICIN	8 µg/mL	16 µg/mL	> 32 µg/mL	> 32 µg/mL	0.06 µg/mL	0.06 µg/mL	0.06 µg/mL	2 µg/mL	8 µg/mL	> 32 µg/mL	> 32 µg/mL	8 µg/mL	0.5 µg/mL	0.5 µg/mL			0.25 µg/mL	0.125 µg/mL			MIC [3]: < 0.03 µg/mL; MIC [7]: < 0.03 µg/mL; MIC50 [9]: 0.5 µg/mL; MIC90 [9]: 1 µg/mL

Reference: ChEMBL document CHEMBL1255301, “Activity of Tigecycline against Coryneform Bacteria of Clinical Interest and Listeria monocytogenes” (2008)
